Entries after “also recorded” stand apart in the source; their conditions may differ.
Columns and labels:
[1] = test system: choroidal neovascularization (CNV) at Bruch's membrane rupture sites; assay: Mouse model of laser-induced choroidal neovascularization (rupture of Bruch's membrane), CNV area on choroidal flat mounts; format: in vivo, C57BL/6J mice
[2] = test system: retinal structure; assay: Retinal structure in hematoxylin and eosin stained retinal sections; format: in vivo, mice
Experimental: The remaining 10 mice were given an intravitreous injection of 20 μg of CGC-11144 in one eye and vehicle in the fellow eye on days 7 and 10 and then CNV area was measured at each rupture site at 14 days after laser (n=30 in each group). […] After 3 days, ERGs were performed as described in Methods. […] (In FIGS. 3C-3F, retinal sections were stained with hematoxylin and eosin; FIG. 3C and FIG. 3E, 40×; FIG. 3D and FIG. 3F, 100×.)

[3] = test system: subretinal neovascularization; assay: Rhodopsin/VEGF transgenic mice, subretinal neovascularization; format: in vivo, rhodopsin/VEGF transgenic mice (V6 mice); settings: periocular injection at P7, measured P21; 100 μg CGC-11144, 1 mg CGC-11047, 750 μg CGC-11093
Source text: Transgenic mice (V6 mice) in which the rhodopsin promoter drives expression of VEGF165 in photoreceptors have onset of VEGF expression at post-natal day 7 (P7) and soon after begin to develop neovascularization originating from the deep capillary bed that grows through the photoreceptor layer into the subretinal space. (Okamoto N et al., Amer. J. Pathol. 151: 281-91 (1997); Tobe T et al., Invest. Ophthalmol. Vis. Sci. 39: 180-188 (1998)). Hemizygous transgene positive mice were given a periocular injection of 100 μg of CGC-11144 (n=3), 1 mg of CGC-11047 (n=3), 750 μg of CGC-11093 (n=3) or vehicle (n=7) at P7. At post-natal day 21 (P21), mice were euthanized and the amount of subretinal neovascularization was quantified as previously described (Tobe, ibid.). Briefly, mice were anesthetized, perfused with fluorescein-labeled dextran, and the number of neovascular lesions on the outer surface of the retina and their total area were measured on retinal flat mounts by image analysis as described in Example 1.

[4] = test system: CNV lesions; assay: TUNEL staining for apoptosis within CNV lesions; format: in vivo, C57BL/6 mice; settings: periocular 200 μg on days 7 and 8 after laser
Experimental: On days 7 and 8 after laser-induced rupture of Bruch's membrane, adult female C57BL/6 mice received a periocular injection of 0.2 mg of CGC-11144 or vehicle and then they were euthanized. Eyes were embedded in OCT and 10 μm serial sections were cut through CNV lesions and fixed with 1% paraformaldehyde for 10 minutes at room temperature. TUNEL staining was done using an ApopTag Fluorescein Red Kit (Intergen, Purchase, N.Y.) following the manufacturer's instructions. Adjacent sections were stained for GSA to visualize vascular cells on some sections; TUNEL staining was done to identify cell undergoing apoptosis on adjacent sections.

[5] = test system: retinal neovascularization; assay: Oxygen-induced ischemic retinopathy, retinal neovascularization; format: in vivo, neonatal C57BL/6 mice; settings: 100 μg CGC-11144, 1 mg CGC-11047, 750 μg CGC-11093
Experimental: Ischemic retinopathy can be produced in neonatal C57BL/6 mice as described (Smith, L. E et al., Invest. Opthalmol. Vis. Sci. 35: 101-111 (1994)) and serves as a model for retinopathy of prematurity (ROP). Post-natal day 7 (P7) mice and their mothers were placed in an airtight incubator and exposed to an atmosphere of 75±3% oxygen for 5 days. Incubator temperature was maintained at 23±2° C. and oxygen was continuously monitored with a PROOX model 110 oxygen controller (Reming Bioinstruments Co., Redfield, N.Y.). At post-natal day 12, mice were placed back in room air and were given a periocular injection of 3 μl containing 100 μg of CGC-11144 (n=4), 1 mg of CGC-11047 (n=4), 750 μg of CGC-11093 (n=4) or vehicle. On post-natal day 17 (P17) the treated and control mice were euthanized and the amount of retinal neovascularization was measured.
For measurement of retinal neovascularization, eyes were removed and fixed in 2% paraformaldehyde in phosphate buffered saline (PBS) for one hour and rinsed twice in 25% sucrose in PBS. Specimens were incubated in 25% sucrose in PBS overnight and embedded in OCT compound (Miles Diagnostics, Elkhart, Ind.),). 10 μm frozen sections were post-fixed for 15 minutes in 0.5% glutaraldehyde in PBS and washed in PBS. Sections were also histochemically stained with biotinylated Griffonia simplicifolia lectin B4 (GSA, Vector Laboratories, Burlingame, Calif.), which selectively binds to vascular cells. Slides were incubated in methanol/H2O2 for 10 minutes at 4° C., washed with 0.05 M Tris-buffered saline, pH 7.6 (TBS), and incubated for 30 minutes in 10% normal porcine serum. Slides were incubated 2 hours at room temperature with biotinylated GSA and after rinsing with 0.05M TBS, they were incubated with avidin coupled to peroxidase (Vector Laboratories, Burlingame, Calif.) for 30 minutes at room temperature. After being washed for 10 minutes with 0.05M TBS, slides were incubated with diaminobenzidine (Research Genetics, Huntsville, Ala.) to give a brown reaction product.
To perform quantitative assessments, 10 μm frozen serial sections were cut from the iris root on one side of the eye to the iris root on the opposite side of the eye and every tenth section was stained with GSA. Retinas were examined with an Axioskop microscope and images were digitized using a 3 CCD color video camera and a frame grabber. Image-Pro Plus software was used to delineate GSA-stained vascular cells above the internal limiting membrane and the total area of staining was measured.
To investigate the effect of these agents on regression of retinal neovascularization, ischemic retinopathy was induced and left untreated until P17, when the baseline amount of retinal neovascularization was measured in one group of mice. From post-natal days 17 to 20 (P17 to P20) the remainder of the mice were given daily periocular injections of 100 μg of CGC-11144 (n=4), 1 mg of CGC-11047 (n=4), 750 μg of CGC-11093 (n=4) or vehicle. On P20 the mice were euthanized and the amount of retinal neovascularization in the treated and control mice was measured as described above.

[6] = Tolerability of intraperitoneal injections in mice; format: in vivo

CCNCCCCNCCCCNCCCCNCCCCNC/C=C/CNCCCCNCCCCNCCCCNCCCCNCC.Cl.Cl.Cl.Cl.Cl.Cl.Cl.Cl.Cl.Cl [CGC-11144]
area of CNV vs day 7 baseline and vehicle fellow eyes (regression) ([1]; daily periocular injections days 7 to 14, 200 μg CGC-11144, 100 μg DFMO, or both): significant reduction in CNV area; also recorded: significantly less | area of CNV vs controls (no injection or vehicle-injected fellow eye) ([1]; intraocular 20 μg on days 0 and 7 after rupture): significantly less CNV than corresponding controls | decrease in area of CNV compared to vehicle-treated or untreated eyes ([1]; intravitreous 20 μg on days 0 and 7 after rupture, measured day 14): approximately 40% | area of established CNV vs vehicle fellow eyes and vs 7 day baseline (regression) ([1]; intravitreous 20 μg on days 7 and 10, measured day 14): significantly smaller in area | size (area) of CNV lesions vs vehicle ([1]; ip 10 mg/kg twice a week, 2 weeks after rupture of Bruch's membrane, 10 mg/kg): statistically significant reductions in the size of CNV lesions; also recorded: small, but significant reductions in CNV | size (area) of CNV lesions vs vehicle ([1]; ip 20 mg/kg twice a week, surviving mice, 20 mg/kg): small statistically significant reductions in CNV lesion size; also recorded: small, but significant reductions in CNV | decrease in CNV area compared to vehicle-treated eyes ([1]; periocular 200 μg 3 times a week, day 14): 40% | area of established CNV vs vehicle fellow eyes and 7 day baseline (regression) ([1]; periocular 200 μg on days 7, 10 and 13, measured day 14): significant decrease in area of CNV; also recorded: significantly smaller | area of CNV vs controls (no injection or vehicle-injected fellow eye) ([1]; periocular 200 μg three times a week, day 14): significantly less CNV than corresponding controls | amount of CNV on day 14 vs vehicle (suppression) ([1]; single periocular injection at time of rupture, 200 μg CGC-11144, 2 mg CGC-11047, 1.5 mg CGC-11093): significantly reduced the amount of CNV | amount of CNV vs vehicle (duration of effect) ([1]; single periocular injection one week prior to rupture, 200 μg CGC-11144, 2 mg CGC-11047, 1.5 mg CGC-11093): significant reduction of the amount of CNV | amount of CNV vs vehicle (duration of effect) ([1]; single periocular injection two weeks prior to rupture, 200 μg CGC-11144, 2 mg CGC-11047, 1.5 mg CGC-11093): no significant effect | appearance of retinas ([2]; daily periocular 200 μg for 14 days): normal-appearing retinas | retinal structure / morphology ([2]; intravitreous 20 μg): markedly disrupted; also recorded: substantial disruption of the morphology of the retina | subretinal neovascularization vs vehicle [3]: significantly less subretinal neovascularization | TUNEL-stained (apoptotic) cells within CNV lesions [4]: many TUNEL-stained cells within CNV lesions; also recorded: several red TUNEL-stained nuclei located within the CNV lesion | amount of retinal neovascularization at P20 vs vehicle (regression) ([5]; daily periocular injections P17 to P20): significantly less neovascularization | amount of retinal neovascularization at P17 vs vehicle (suppression) ([5]; periocular injection at P12): significantly less | tolerability ([6]; ip 10 mg/kg twice a week): well tolerated | tolerability ([6]; ip 20 mg/kg twice a week, 2-week treatment period): not well tolerated and several mice died

From patent US20060160906A1, “Polyamine analogs as therapeutic agents for ocular diseases” (priority 2004, published 2006)
